The structures appear in SMILES notation.

For orientation: IC50 means the point on the concentration scale where inhibition reaches its midpoint. A higher IC50 goes with lower potency.

The target in the assay is T1, MAGL (Homo sapiens, UniProt Q99685).
T1 sequence (Q99685 1-303): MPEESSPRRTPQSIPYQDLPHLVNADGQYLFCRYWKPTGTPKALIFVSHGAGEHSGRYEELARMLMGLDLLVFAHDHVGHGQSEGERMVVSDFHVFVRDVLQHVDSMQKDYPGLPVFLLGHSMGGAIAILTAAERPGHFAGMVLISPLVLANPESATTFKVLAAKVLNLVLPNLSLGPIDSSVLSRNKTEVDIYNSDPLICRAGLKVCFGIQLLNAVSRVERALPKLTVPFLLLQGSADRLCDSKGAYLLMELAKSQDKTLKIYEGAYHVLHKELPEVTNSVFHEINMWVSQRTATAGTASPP
The assay can be described thus: 2-AG assay: MAGL inhibitory activity by hydrolysis of 2-arachidonoylglycerol to arachidonic acid, mass spectrometry. It is filed as biochemical. Conditions: 2-AG assay (values marked [b]). How it is done: Alternatively, compounds were profiled for MAGL inhibitory activity by determining the enzymatic activity by following the hydrolysis of the natural substrate 2-arachidonoylglycerol (2-AG) resulting in arachidonic acid, which can be followed by mass spectrometry. This assay is hereinafter abbreviated “2-AG assay”.
The 2-AG assay was carried out in 384 well assay plates (PP, Greiner Cat #784201) in a total volume of 20 μL. Compound dilutions were made in 100% DMSO (VWR Chemicals 23500.297) in a polypropylene plate in 3-fold dilution steps to give a final concentration range in the assay from 12.5 μM to […]. 0.25 μL compound dilutions (100% DMSO) were added to 9 μL MAGL in assay buffer (50 mM TRIS (GIBCO, 15567-027), 1 mM EDTA (Fluka, 03690-100 mL), 0.01% (v/v) Tween. After shaking, the plate was incubated for 15 min at RT. To start the reaction, 10 μL 2-arachidonoylglycerol in assay buffer was added. The final concentrations in the assay was […] and 8 μM 2-arachidonoylglyerol. After shaking and 30 min incubation at RT, the reaction was quenched by the addition of 40 μL of ACN containing 4 μM of d8-arachidonic acid. The amount of arachidonic acid was traced by an online SPE system (Agilent Rapidfire) coupled to a triple quadrupole mass spectrometer (Agilent 6460). A C18 SPE cartridge (G9205A) was used in an ACN/water liquid setup. The mass spectrometer was operated in negative electrospray mode following the mass transitions 303.1→259.1 for arachidonic acid and 311.1→267.0 for d8-arachidonic acid. The activity of the compounds was calculated based on the ratio of intensities [arachidonic acid/d8-arachidonic acid].

Regarding `Cc1cc(C(=O)N2CCN(c3nc4nc(Cl)ccc4o3)CC2)ccc1-c1ncn(C(C)(C)C)n1` [Example 97, (4-(1-(tert-butyl)-1H-1,2,4-triazol-3-yl)-3-methylphenyl)(4-(5-chlorooxazolo[4,5-b]pyridin-2-yl)piperazin-1-yl)methanone], it took 12 nM to reach half-maximal inhibition (IC50). This counts as double-digit nanomolar.

`O=C(c1ccc(-c2cn(CC(F)(F)F)nn2)cc1)N1CCN(c2nc3nc(Cl)ccc3o2)CC1` [Example 98, (4-(5-chlorooxazolo[4,5-b]pyridin-2-yl)piperazin-1-yl)(4-(1-(2,2,2-trifluoroethyl)-1H-1,2,3-triazol-4-yl)phenyl)methanone] yielded an IC50 of 144 nM. Against the preceding compound, the IC50 is about 12-fold higher.

Consider `Cc1ccc2oc(N3CCN(C(=O)c4ccc(-c5cn(CC(F)(F)F)nn5)cc4)CC3)nc2n1` [Example 99, (4-(5-methyloxazolo[4,5-b]pyridin-2-yl)piperazin-1-yl)(4-(1-(2,2,2-trifluoroethyl)-1H-1,2,3-triazol-4-yl)phenyl)methanone], for which the IC50 stood at 523 nM.

For the compound `Cc1ccc2oc(N3CCN(C(=O)c4ccc(-c5cn(CC6(C)COC6)nn5)cc4)CC3)nc2n1` [Example 100, (4-(5-methyloxazolo[4,5-b]pyridin-2-yl)piperazin-1-yl)(4-(1-((3-methyloxetan-3-yl)methyl)-1H-1,2,3-triazol-4-yl)phenyl)methanone], inhibition was half-maximal at 1080 nM (IC50).

Consider `CC1(Cn2cc(-c3ccc(C(=O)N4CCN(c5nc6nc(Cl)ccc6o5)CC4)cc3)nn2)COC1` [Example 101, (4-(5-chlorooxazolo[4,5-b]pyridin-2-yl)piperazin-1-yl)(4-(1-((3-methyloxetan-3-yl)methyl)-1H-1,2,3-triazol-4-yl)phenyl)methanone], for which the IC50 turned out to be 609 nM.

In turn, `O=C(C#Cc1ccccc1)N1CCN(c2nc3nc(Cl)ccc3o2)CC1` [Example 102, 1-(4-(5-chlorooxazolo[4,5-b]pyridin-2-yl)piperazin-1-yl)-3-phenylprop-2-yn-1-one] returned a concentration for half-maximal inhibition (IC50) of 932 nM.

Consider `O=C(C#Cc1ccc(Cl)cc1)N1CCN(c2nc3nc(Cl)ccc3o2)CC1` [Example 103, 1-(4-(5-chlorooxazolo[4,5-b]pyridin-2-yl)piperazin-1-yl)-3-(4-chlorophenyl)prop-2-yn-1-one], for which it took 452 nM to reach half-maximal inhibition (IC50).

In turn, `C#Cc1ccc(C(=O)N2CCN(c3nc4nc(Cl)ccc4o3)CC2)cc1OC` [Example 104, (4-(5-chlorooxazolo[4,5-b]pyridin-2-yl)piperazin-1-yl)(4-ethynyl-3-methoxyphenyl)methanone] had a concentration for half-maximal inhibition (IC50) of 109 nM.

In turn, `O=C(c1ccc(-c2noc(C34CC(C3)C4)n2)cc1)N1CCN(c2nc3nc(Cl)ccc3o2)CC1` [Example 105, [4-[5-(3-bicyclo[1.1.1]pentanyl)-1,2,4-oxadiazol-3-yl]phenyl]-[4-(5-chlorooxazolo[4,5-b]pyridin-2-yl)piperazin-1-yl]methanone] had an IC50 of 9 nM.

Compound `Cc1ccc2oc(N3CCN(C(=O)c4ccc(-c5ncn(C(C)(C)C)n5)c(F)c4)CC3)nc2n1` [Example 106, [4-(1-tert-butyl-1,2,4-triazol-3-yl)-3-fluorophenyl]-[4-(5-methyl-[1,3]oxazolo[4,5-b]pyridin-2-yl)piperazin-1-yl]methanone] returned an IC50 of 36 nM.

As to `CC(C)(C)n1cnc(-c2ccc(C(=O)N3CCN(c4nc5nc(Cl)ccc5o4)CC3)cc2F)n1` [Example 107, [4-(1-tert-butyl-1,2,4-triazol-3-yl)-3-fluorophenyl]-[4-(5-chloro-[1,3]oxazolo[4,5-b]pyridin-2-yl)piperazin-1-yl]methanone], the IC50 is 15 nM.

`Cc1ccc2oc(N3CCN(C(=O)c4ccc(-c5cn(C6(C(F)(F)F)CC6)nn5)cc4)CC3)nc2n1` [Example 108, [4-(5-methyl-[1,3]oxazolo[4,5-b]pyridin-2-yl)piperazin-1-yl]-[4-[1-[1-(trifluoromethyl)cyclopropyl]triazol-4-yl]phenyl]methanone] gave an IC50 of 154 nM.

On to `Cc1ccc2oc(N3CCN(C(=O)c4ccc(-c5cn(C6(C)COC6)nn5)cc4)CC3)nc2n1` [Example 109, [4-(5-methyl-[1,3]oxazolo[4,5-b]pyridin-2-yl)piperazin-1-yl]-[4-[1-(3-methyloxetan-3-yl)triazol-4-yl]phenyl]methanone], for which the midpoint of inhibition, the IC50, lay at 2520 nM.

As for `CC1(n2cc(-c3ccc(C(=O)N4CCN(c5nc6nc(Cl)ccc6o5)CC4)cc3)nn2)COC1` [Example 110, [4-(5-chloro-[1,3]oxazolo[4,5-b]pyridin-2-yl)piperazin-1-yl]-[4-[1-(3-methyloxetan-3-yl)triazol-4-yl]phenyl]methanone], 859 nM corresponded to half-maximal inhibition (IC50).

As to `Cc1ccc2oc(N3CCN(C(=O)c4ccc(-c5ncn(C(C)(C)C)n5)c(C(F)(F)F)c4)CC3)nc2n1` [Example 111, [4-(1-tert-butyl-1,2,4-triazol-3-yl)-3-(trifluoromethyl)phenyl]-[4-(5-methyl-[1,3]oxazolo[4,5-b]pyridin-2-yl)piperazin-1-yl]methanone], the half-maximal inhibitory concentration (IC50) was 28 nM.

As to `CC(C)(C)n1cnc(-c2ccc(C(=O)N3CCN(c4nc5nc(Cl)ccc5o4)CC3)cc2C(F)(F)F)n1` [Example 112, [4-(1-tert-butyl-1,2,4-triazol-3-yl)-3-(trifluoromethyl)phenyl]-[4-(5-chloro-[1,3]oxazolo[4,5-b]pyridin-2-yl)piperazin-1-yl]methanone], 12 nM corresponded to half-maximal inhibition (IC50).

`Cc1ccc2oc(N3CCN(C(=O)c4ccc(-c5cn(CC6COC6)nn5)cc4)CC3)nc2n1` [Example 113, [4-(5-methyl-[1,3]oxazolo[4,5-b]pyridin-2-yl)piperazin-1-yl]-[4-[1-(oxetan-3-ylmethyl)triazol-4-yl]phenyl]methanone] displayed a concentration for half-maximal inhibition (IC50) of 4270 nM.

Compound `O=C(c1ccc(-c2cn(CC3COC3)nn2)cc1)N1CCN(c2nc3nc(Cl)ccc3o2)CC1` [Example 114, [4-(5-chloro-[1,3]oxazolo[4,5-b]pyridin-2-yl)piperazin-1-yl]-[4-[1-(oxetan-3-ylmethyl)triazol-4-yl]phenyl]methanone] yielded an IC50 of 5550 nM.

Consider `CC(C)(C)c1nnc(-c2ccc(C(=O)N3CCN(c4nc5nc(Cl)ccc5o4)CC3)cc2Cl)o1` [Example 115, (4-(5-(tert-butyl)-1,3,4-oxadiazol-2-yl)-3-chlorophenyl)(4-(5-chlorooxazolo[4,5-b]pyridin-2-yl)piperazin-1-yl)methanone], for which half-maximal inhibition (IC50) was put at 8 nM.

`Cc1ccc2oc(N3CCN(C(=O)c4ccc(-c5nnc(C(C)(C)C)o5)c(Cl)c4)CC3)nc2n1` [Example 117, (4-(5-(tert-butyl)-1,3,4-oxadiazol-2-yl)-3-chlorophenyl)(4-(5-methyloxazolo[4,5-b]pyridin-2-yl)piperazin-1-yl)methanone] came in with a half-maximal inhibitory concentration (IC50) of 34 nM.

In turn, `Cc1ccc2oc(N3CCN(C(=O)c4cc(O)c(-c5nnc(C(C)(C)C)o5)c(F)c4)CC3)nc2n1` [Example 118, (4-(5-(tert-butyl)-1,3,4-oxadiazol-2-yl)-3-fluoro-5-hydroxyphenyl)(4-(5-methyloxazolo[4,5-b]pyridin-2-yl)piperazin-1-yl)methanone] returned an IC50 of 368 nM.

For `Cn1nc(C(C)(C)C)nc1-c1ccc(C(=O)N2CCN(c3nc4nc(Cl)ccc4o3)CC2)cc1` [Example 119, [4-(5-tert-butyl-2-methyl-1,2,4-triazol-3-yl)phenyl]-[4-(5-chlorooxazolo[4,5-b]pyridin-2-yl)piperazin-1-yl]methanone], half-maximal inhibition (IC50) required 140 nM.

Regarding `Cc1cc(C(=O)N2CCN(c3nc4nc(Cl)ccc4o3)CC2)cnc1-n1cc(C(C)(C)C)cn1` [Example 120, [6-(4-tert-butylpyrazol-1-yl)-5-methylpyridin-3-yl]-[4-(5-chloro-[1,3]oxazolo[4,5-b]pyridin-2-yl)piperazin-1-yl]methanone], half-maximal inhibition (IC50) was put at 4 nM.

In the case of `Cc1ccc2oc(N3CCN(C(=O)c4ccc(-c5nnc(C(C)(C)C)o5)c(C(F)(F)F)c4)CC3)nc2n1` [Example 121, [4-(5-tert-butyl-1,3,4-oxadiazol-2-yl)-3-(trifluoromethyl)phenyl]-[4-(5-methyloxazolo[4,5-b]pyridin-2-yl)piperazin-1-yl]methanone], inhibition was half-maximal at 13 nM (IC50). This IC50 lies about 3.2-fold higher than the previous one.

In turn, `CC(C)(C)c1nnc(-c2ccc(C(=O)N3CCN(c4nc5nc(Cl)ccc5o4)CC3)cc2C(F)(F)F)o1` [Example 122, [4-(5-tert-butyl-1,3,4-oxadiazol-2-yl)-3-(trifluoromethyl)phenyl]-[4-(5-chlorooxazolo[4,5-b]pyridin-2-yl)piperazin-1-yl]methanone] returned an IC50 of 3 nM. Compared with the last compound, the IC50 is about 4.3-fold lower.

As for `COc1cc(C(=O)N2CCN(c3nc4nc(C)ccc4o3)CC2)ccc1-c1ncn(C(C)(C)C)n1` [Example 123, (4-(1-(tert-butyl)-1H-1,2,4-triazol-3-yl)-3-methoxyphenyl)(4-(5-methyloxazolo[4,5-b]pyridin-2-yl)piperazin-1-yl)methanone], the concentration for half-maximal inhibition (IC50) worked out at 174 nM.

Source of the values: patent US20220135591A1, “HETEROCYCLIC COMPOUNDS AS INHIBITORS OF MONOACYLGLYCEROL LIPASE (MAGL)” (Hoffmann-La Roche Inc., priority 2019, published 2022).
